Measurements reported in patent US20090270371A1, “QUINOLINE DERIVATIVES USEFUL IN THE TREATMENT OF MGLUR5 RECEPTOR-MEDIATED DISORDERS” (priority 2005, published 2009).

biological target: T1, rat mGluR5 receptors (Rattus norvegicus, UniProt P31424); assay: mGluR5 receptor binding test, rat cerebro-cortical membrane preparation, [3H]-M-MPEP; details: affinity for rat mGluR5 receptors; [3H]-M-MPEP (2 nM) radioligand
T1 construct: rat cerebro-cortical membrane preparation was used; from tissue; host or cells: rat cerebral cortex membranes
T1 sequence (P31424 21-1203): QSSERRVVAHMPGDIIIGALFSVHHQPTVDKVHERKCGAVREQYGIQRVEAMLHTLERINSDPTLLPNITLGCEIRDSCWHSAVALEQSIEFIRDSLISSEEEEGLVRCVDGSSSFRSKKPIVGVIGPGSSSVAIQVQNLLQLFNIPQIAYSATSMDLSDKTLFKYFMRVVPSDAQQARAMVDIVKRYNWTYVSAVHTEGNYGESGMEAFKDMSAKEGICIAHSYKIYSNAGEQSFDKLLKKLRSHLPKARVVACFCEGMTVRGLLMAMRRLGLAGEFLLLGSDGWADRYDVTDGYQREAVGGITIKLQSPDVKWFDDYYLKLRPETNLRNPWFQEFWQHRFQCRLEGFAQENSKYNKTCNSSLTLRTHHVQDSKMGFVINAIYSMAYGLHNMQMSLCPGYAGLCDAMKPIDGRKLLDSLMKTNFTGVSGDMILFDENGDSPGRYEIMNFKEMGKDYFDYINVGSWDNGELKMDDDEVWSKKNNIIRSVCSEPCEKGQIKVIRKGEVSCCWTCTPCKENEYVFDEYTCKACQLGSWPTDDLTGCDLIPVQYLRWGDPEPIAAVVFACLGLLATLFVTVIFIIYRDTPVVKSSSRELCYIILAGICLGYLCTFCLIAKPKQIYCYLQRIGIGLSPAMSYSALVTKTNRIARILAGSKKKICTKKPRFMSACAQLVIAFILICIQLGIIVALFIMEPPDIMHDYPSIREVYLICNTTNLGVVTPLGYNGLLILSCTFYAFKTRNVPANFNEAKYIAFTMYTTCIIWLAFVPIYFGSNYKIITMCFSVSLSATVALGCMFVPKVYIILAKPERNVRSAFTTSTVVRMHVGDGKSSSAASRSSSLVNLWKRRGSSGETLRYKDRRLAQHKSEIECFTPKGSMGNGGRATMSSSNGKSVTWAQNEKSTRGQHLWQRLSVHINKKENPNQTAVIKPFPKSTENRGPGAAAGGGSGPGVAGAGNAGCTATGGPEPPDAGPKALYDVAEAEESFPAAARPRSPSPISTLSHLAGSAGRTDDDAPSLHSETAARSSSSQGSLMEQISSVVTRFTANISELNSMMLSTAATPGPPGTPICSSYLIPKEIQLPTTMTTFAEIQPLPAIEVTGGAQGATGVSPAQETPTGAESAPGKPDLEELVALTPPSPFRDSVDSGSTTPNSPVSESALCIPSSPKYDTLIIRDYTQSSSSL
Procedure: The mGluR5 receptor binding was determined according to the modified method of Gasparini et. al. (Bioorg. Med. Chem. Lett., 2000, 12, 407). Based on the high homology between the human and rat mGluR5 receptors, rat cerebro-cortical membrane preparation was used to determine the binding characteristics of the reference compounds and novel compounds to the rat mGluR5. The A18 cell line expressing hmGluR5a (purchased from Euroscreen) was used to determine binding characteristics of the chemical compounds to the human mGluR5a receptor. [^3H]-M-MPEP (2 nM) was used as radioligand. The nonspecific binding was determined in the presence of 10 μM M-MPEP.

Row | SMILES | Ki
1 | Cc1ccc2ncc(S(=O)(=O)c3ccc(C#N)cc3)c(N3CCC(C)CC3)c2c1 [Compound 166] | 200 to 500 nM
2 | Cc1cc(C)cc(S(=O)(=O)c2cnc3ccc(C)cc3c2N2CCC(C)CC2)c1 [Compound 168] | 200 to 500 nM
3 | CC1CCN(c2c(S(=O)(=O)c3cc(F)cc(F)c3)cnc3cc(F)ccc23)CC1 [Compound 170] | 200 to 500 nM
4 | CC1CCN(c2c(S(=O)(=O)c3ccc(F)cc3)cnc3cc(F)ccc23)CC1 [Compound 172] | 200 to 500 nM
5 | Cc1cc(C)cc(S(=O)(=O)c2cnc3cc(F)ccc3c2N2CCC(C)CC2)c1 [Compound 184] | 200 to 500 nM
6 | COc1ccc(S(=O)(=O)c2cnc3cc(Cl)ccc3c2N2CCC(C)CC2)cc1 [Compound 193] | 200 to 500 nM
7 | CC1CCN(c2c(S(=O)(=O)c3ccc(C#N)cc3)cnc3cc(Cl)ccc23)CC1 [Compound 204] | 200 to 500 nM
8 | CC1CCN(c2c(S(=O)(=O)c3ccc(F)c(F)c3)cnc3cc(Cl)ccc23)CC1 [Compound 206] | < 200 nM
9 | CC1CCN(c2c(S(=O)(=O)c3ccc(F)c(Cl)c3)cnc3cc(Cl)ccc23)CC1 [Compound 207] | < 200 nM
10 | CC1CCN(c2c(S(=O)(=O)c3cc(Cl)cc(Cl)c3)cnc3ccc(Cl)cc23)CC1 [Compound 208] | < 200 nM
11 | CC1CCN(c2c(S(=O)(=O)c3cc(F)cc(F)c3)cnc3ccc(Cl)cc23)CC1 [Compound 209] | < 200 nM
12 | CC1CCN(c2c(S(=O)(=O)c3cccc(C#N)c3)cnc3ccc(Cl)cc23)CC1 [Compound 210] | < 200 nM
13 | Cc1ccc(S(=O)(=O)c2cnc3ccc(Cl)cc3c2N2CCC(C)CC2)cc1 [Compound 211] | < 200 nM
14 | CC1CCN(c2c(S(=O)(=O)c3ccc(F)cc3)cnc3ccc(Cl)cc23)CC1 [Compound 212] | < 200 nM
15 | CC1CCN(c2c(S(=O)(=O)c3ccc(Cl)cc3)cnc3ccc(Cl)cc23)CC1 [Compound 213] | < 200 nM
16 | CC1CCN(c2c(S(=O)(=O)c3cccc(F)c3)cnc3ccc(Cl)cc23)CC1 [Compound 214] | 200 to 500 nM
17 | COc1cccc(S(=O)(=O)c2cnc3ccc(Cl)cc3c2N2CCC(C)CC2)c1 [Compound 215] | < 200 nM
18 | CC1CCN(c2c(S(=O)(=O)c3cccc(Cl)c3)cnc3ccc(Cl)cc23)CC1 [Compound 216] | > 500 nM
19 | Cc1ccc(S(=O)(=O)c2cnc3ccc(Cl)cc3c2N2CCC(C)CC2)cc1F [Compound 217] | 200 to 500 nM
20 | CC1CCN(c2c(S(=O)(=O)c3ccc(C#N)cc3)cnc3ccc(Cl)cc23)CC1 [Compound 218] | > 500 nM

Row | SMILES | Ki
21 | Cc1ccc(S(=O)(=O)c2cnc3ccc(Cl)cc3c2N2CCC(C)CC2)cc1Cl [Compound 219] | 200 to 500 nM
22 | Cc1ccc(S(=O)(=O)c2cnc3ccc(Cl)cc3c2N2CCC(C)CC2)cc1C [Compound 220] | < 200 nM
23 | COc1ccc(S(=O)(=O)c2cnc3ccc(Cl)cc3c2N2CCC(C)CC2)cc1Cl [Compound 221] | > 500 nM
24 | CC1CCN(c2c(S(=O)(=O)c3ccc(F)c(F)c3)cnc3ccc(Cl)cc23)CC1 [Compound 222] | 200 to 500 nM
25 | CC1CCN(c2c(S(=O)(=O)c3ccc(Cl)c(Cl)c3)cnc3ccc(Cl)cc23)CC1 [Compound 223] | < 200 nM
26 | Cc1cc(C)cc(S(=O)(=O)c2cnc3ccc(Cl)cc3c2N2CCC(C)CC2)c1 [Compound 224] | > 500 nM
27 | COc1ccc(S(=O)(=O)c2cnc3ccc(Cl)cc3c2N2CCC(C)CC2)cc1OC [Compound 225] | 200 to 500 nM
28 | CC1CCN(c2c(S(=O)(=O)c3cc(Cl)cc(Cl)c3)cnc3c(F)cccc23)CC1 [Compound 226] | < 200 nM
29 | CC1CCN(c2c(S(=O)(=O)c3cc(F)cc(F)c3)cnc3c(F)cccc23)CC1 [Compound 227] | > 500 nM
30 | CC1CCN(c2c(S(=O)(=O)c3ccc(F)cc3)cnc3c(F)cccc23)CC1 [Compound 228] | > 500 nM
31 | COc1ccc(S(=O)(=O)c2cnc3c(F)cccc3c2N2CCC(C)CC2)cc1 [Compound 229] | 200 to 500 nM
32 | CC1CCN(c2c(S(=O)(=O)c3ccccc3)cnc3c(F)cccc23)CC1 [Compound 230] | > 500 nM
33 | CC1CCN(c2c(S(=O)(=O)c3ccc(Cl)cc3)cnc3c(F)cccc23)CC1 [Compound 231] | < 200 nM
34 | CC1CCN(c2c(S(=O)(=O)c3cccc(F)c3)cnc3c(F)cccc23)CC1 [Compound 232] | 200 to 500 nM
35 | Cc1ccc(S(=O)(=O)c2cnc3c(F)cccc3c2N2CCC(C)CC2)cc1F [Compound 233] | < 200 nM
36 | CC1CCN(c2c(S(=O)(=O)c3ccc(C#N)cc3)cnc3c(F)cccc23)CC1 [Compound 234] | < 200 nM
37 | Cc1ccc(S(=O)(=O)c2cnc3c(F)cccc3c2N2CCC(C)CC2)cc1 [Compound 235] | < 200 nM
38 | CC1CCN(c2c(S(=O)(=O)c3ccc(Cl)c(Cl)c3)cnc3c(F)cccc23)CC1 [Compound 236] | < 200 nM
39 | CC1CCN(c2c(S(=O)(=O)c3ccc(F)c(Cl)c3)cnc3c(F)cccc23)CC1 [Compound 237] | < 200 nM

Results, then the compound that gave them:

Row | Ki | SMILES
40 | < 200 nM | Cc1ccc2ncc(S(=O)(=O)c3ccc(C)c(C)c3)c(N3CCC(C)CC3)c2c1 [Compound 161]
41 | < 200 nM | COc1ccc(S(=O)(=O)c2cnc3ccc(C)cc3c2N2CCC(C)CC2)cc1Cl [Compound 162]
42 | < 200 nM | Cc1ccc2ncc(S(=O)(=O)c3cccc(Cl)c3)c(N3CCC(C)CC3)c2c1 [Compound 163]
43 | < 200 nM | Cc1ccc2ncc(S(=O)(=O)c3ccc(Cl)c(Cl)c3)c(N3CCC(C)CC3)c2c1 [Compound 164]
44 | < 200 nM | Cc1ccc2ncc(S(=O)(=O)c3ccc(C)c(F)c3)c(N3CCC(C)CC3)c2c1 [Compound 165]
45 | < 200 nM | Cc1ccc2ncc(S(=O)(=O)c3ccc(C)c(Cl)c3)c(N3CCC(C)CC3)c2c1 [Compound 167]
46 | < 200 nM | Cc1ccc2ncc(S(=O)(=O)c3ccc(F)c(Cl)c3)c(N3CCC(C)CC3)c2c1 [Compound 169]
47 | < 200 nM | Cc1ccc(S(=O)(=O)c2cnc3cc(F)ccc3c2N2CCC(C)CC2)cc1 [Compound 171]
48 | < 200 nM | CC1CCN(c2c(S(=O)(=O)c3ccccc3)cnc3cc(F)ccc23)CC1 [Compound 173]
49 | < 200 nM | CC1CCN(c2c(S(=O)(=O)c3ccc(Cl)cc3)cnc3cc(F)ccc23)CC1 [Compound 174]
50 | < 200 nM | COc1cccc(S(=O)(=O)c2cnc3cc(F)ccc3c2N2CCC(C)CC2)c1 [Compound 175]
51 | < 200 nM | CC1CCN(c2c(S(=O)(=O)c3ccc(Cl)c(Cl)c3)cnc3cc(F)ccc23)CC1 [Compound 176]
52 | < 200 nM | CC1CCN(c2c(S(=O)(=O)c3cc(Cl)cc(Cl)c3)cnc3cc(F)ccc23)CC1 [Compound 177]
53 | < 200 nM | Cc1ccc(S(=O)(=O)c2cnc3cc(F)ccc3c2N2CCC(C)CC2)cc1F [Compound 178]
54 | < 200 nM | CC1CCN(c2c(S(=O)(=O)c3cccc(C#N)c3)cnc3cc(F)ccc23)CC1 [Compound 179]
55 | < 200 nM | CC1CCN(c2c(S(=O)(=O)c3ccc(C#N)cc3)cnc3cc(F)ccc23)CC1 [Compound 180]
56 | < 200 nM | Cc1ccc(S(=O)(=O)c2cnc3cc(F)ccc3c2N2CCC(C)CC2)cc1Cl [Compound 181]
57 | < 200 nM | COc1ccc(S(=O)(=O)c2cnc3cc(F)ccc3c2N2CCC(C)CC2)cc1OC [Compound 182]
58 | < 200 nM | Cc1ccc(S(=O)(=O)c2cnc3cc(F)ccc3c2N2CCC(C)CC2)cc1C [Compound 183]

Row | Ki | SMILES
59 | < 200 nM | COc1ccc(S(=O)(=O)c2cnc3cc(F)ccc3c2N2CCC(C)CC2)cc1 [Compound 185]
60 | < 200 nM | CC1CCN(c2c(S(=O)(=O)c3ccc(F)c(F)c3)cnc3cc(F)ccc23)CC1 [Compound 186]
61 | < 200 nM | CC1CCN(c2c(S(=O)(=O)c3ccc(F)c(Cl)c3)cnc3cc(F)ccc23)CC1 [Compound 187]
62 | < 200 nM | CC1CCN(c2c(S(=O)(=O)c3cc(Cl)cc(Cl)c3)cnc3cc(Cl)ccc23)CC1 [Compound 188]
63 | < 200 nM | CC1CCN(c2c(S(=O)(=O)c3cc(F)cc(F)c3)cnc3cc(Cl)ccc23)CC1 [Compound 189]
64 | < 200 nM | CC1CCN(c2c(S(=O)(=O)c3cccc(C#N)c3)cnc3cc(Cl)ccc23)CC1 [Compound 190]
65 | < 200 nM | Cc1ccc(S(=O)(=O)c2cnc3cc(Cl)ccc3c2N2CCC(C)CC2)cc1 [Compound 191]
66 | < 200 nM | CC1CCN(c2c(S(=O)(=O)c3ccc(F)cc3)cnc3cc(Cl)ccc23)CC1 [Compound 192]
67 | < 200 nM | CC1CCN(c2c(S(=O)(=O)c3ccccc3)cnc3cc(Cl)ccc23)CC1 [Compound 194]
68 | < 200 nM | CC1CCN(c2c(S(=O)(=O)c3ccc(Cl)cc3)cnc3cc(Cl)ccc23)CC1 [Compound 195, 7-Chloro-3-(4-chloro-benzenesulfonyl)-4-(4-methyl-piperidin-1-yl)-quinoline]
69 | < 200 nM | COc1ccc(S(=O)(=O)c2cnc3cc(Cl)ccc3c2N2CCC(C)CC2)cc1OC [Compound 196]
70 | < 200 nM | CC1CCN(c2c(S(=O)(=O)c3cccc(F)c3)cnc3cc(Cl)ccc23)CC1 [Compound 197]
71 | < 200 nM | COc1cccc(S(=O)(=O)c2cnc3cc(Cl)ccc3c2N2CCC(C)CC2)c1 [Compound 198]
72 | < 200 nM | Cc1ccc(S(=O)(=O)c2cnc3cc(Cl)ccc3c2N2CCC(C)CC2)cc1C [Compound 199]
73 | < 200 nM | COc1ccc(S(=O)(=O)c2cnc3cc(Cl)ccc3c2N2CCC(C)CC2)cc1Cl [Compound 200]
74 | < 200 nM | CC1CCN(c2c(S(=O)(=O)c3cccc(Cl)c3)cnc3cc(Cl)ccc23)CC1 [Compound 201]
75 | < 200 nM | CC1CCN(c2c(S(=O)(=O)c3ccc(Cl)c(Cl)c3)cnc3cc(Cl)ccc23)CC1 [Compound 202]
76 | < 200 nM | Cc1ccc(S(=O)(=O)c2cnc3cc(Cl)ccc3c2N2CCC(C)CC2)cc1F [Compound 203]
77 | < 200 nM | Cc1ccc(S(=O)(=O)c2cnc3cc(Cl)ccc3c2N2CCC(C)CC2)cc1Cl [Compound 205]
